In experiment [1] the test system is Rattus norvegicus. In words: Antiparkinsonian activity in 6-hydroxydopamine lesioned Sprague-Dawley rat assessed as contralateral rotations at 1.5 mg/kg, ip measured every 5 mins for 6 hrs pretreated with 5-HT1A receptor antagonist 0.1 mg/kg of WAY-100635 for 10 mins before compound challenge. Type of experiment: functional, organism-based.
The test system of experiment [2] is Rattus norvegicus. In words: Antiparkinsonian effect in Parkinson's disease rat model of assessed as reduction in L-DOPA-induced dyskinesia at 0.5 to 1.5 mg/kg, ip qd for 21 days treated 15 mins before L-DOPA challenge measured on day 14, 17 and 23. Type of experiment: functional, organism-based.
Experiment [3] deals with Rattus norvegicus. In words: Antiparkinsonian effect in 21 days L-DOPA treated Parkinson's disease rat model assessed as reduction in L-DOPA-induced dyskinesia at 0.5 to 1.5 mg/kg, ip administered 15 mins before L-DOPA challenge on day 23. Type of experiment: functional, organism-based.
Experiment [4] deals with Rattus norvegicus. Briefly: Antiparkinsonian effect in Parkinson's disease rat model assessed as effect on contralateral rotations measured per 5 mins at 0.5 to 1.5 mg/kg, ip qd for 21 days. Type of experiment: functional, organism-based.
Experiment [5] has as its target T1, 5-hydroxytryptamine receptor 1A (Rattus norvegicus) (UniProt P19327).
T1 sequence (whole entry): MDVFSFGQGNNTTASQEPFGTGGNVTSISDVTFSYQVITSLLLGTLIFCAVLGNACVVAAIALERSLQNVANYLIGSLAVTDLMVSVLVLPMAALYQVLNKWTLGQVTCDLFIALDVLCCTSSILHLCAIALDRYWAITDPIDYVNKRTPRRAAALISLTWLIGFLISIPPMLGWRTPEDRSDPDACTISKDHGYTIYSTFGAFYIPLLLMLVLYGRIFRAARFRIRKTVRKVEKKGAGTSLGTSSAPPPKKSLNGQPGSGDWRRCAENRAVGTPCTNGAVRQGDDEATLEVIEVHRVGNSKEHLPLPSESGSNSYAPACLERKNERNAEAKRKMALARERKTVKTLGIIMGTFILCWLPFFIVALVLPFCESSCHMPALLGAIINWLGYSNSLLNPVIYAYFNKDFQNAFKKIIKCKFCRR
Briefly: Decrease of 5HT1A receptor-mediated excitatory postsynaptic current amplitude in Sprague-Dawley rat median prefrontal cortex at 10 uM by whole-cell voltage clamp assay. Type of experiment: tissue-based. The arrangement: scale not given: the % may be the effect or the level left.

Another experiment has as its target D(1A) dopamine receptor (Homo sapiens, UniProt P21728). In words: Displacement of [3H]SCH23390 from dopamine D1 receptor expressed in HEK293 cells at 10 uM after 50 mins by beta liquid scintillation counter. Type of experiment: cell-based. (Loss of bound radioactivity is the signal in a displacement assay; it reports binding, not function.)
The target of experiment [6] is T2, D(2) dopamine receptor (Homo sapiens, UniProt P14416). Briefly: Displacement of [3H]spiperone from dopamine D2 receptor expressed in HEK293 cells after 50 mins by beta liquid scintillation counter. Type of experiment: cell-based.
Experiment [7] addresses T3, 5-hydroxytryptamine receptor 1A (Homo sapiens, UniProt P08908).
T3 sequence (P08908 whole entry): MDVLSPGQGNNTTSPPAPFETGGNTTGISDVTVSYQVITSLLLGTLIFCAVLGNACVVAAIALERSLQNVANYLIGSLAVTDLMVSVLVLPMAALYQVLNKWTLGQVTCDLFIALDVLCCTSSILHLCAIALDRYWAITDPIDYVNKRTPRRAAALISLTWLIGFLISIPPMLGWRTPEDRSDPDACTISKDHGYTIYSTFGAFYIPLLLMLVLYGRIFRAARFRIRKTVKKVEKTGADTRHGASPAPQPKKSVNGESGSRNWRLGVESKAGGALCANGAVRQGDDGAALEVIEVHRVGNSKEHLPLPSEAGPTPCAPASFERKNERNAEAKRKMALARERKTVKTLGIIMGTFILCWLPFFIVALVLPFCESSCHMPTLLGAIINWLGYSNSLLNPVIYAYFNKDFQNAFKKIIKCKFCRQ
In words: Displacement of [3H]-8-OH-DPAT from 5-HT1A receptor expressed in CHO cells after 50 mins by beta liquid scintillation counter. Type of experiment: cell-based.

For experiment [8], the target named is 5-hydroxytryptamine receptor 2A (Homo sapiens, UniProt P28223). Briefly: Displacement of [3H]ketanserin from 5-HT2A receptor expressed in CHO cells at 10 uM after 50 mins by beta liquid scintillation counter. Type of experiment: cell-based.
The target in experiment [9] is T2, D(2) dopamine receptor. In words: Agonist activity at dopamine D2 receptor expressed in HEK293 cells assessed as stimulation of [35S]GTPgammaS binding after 30 mins. Type of experiment: functional, cell-based.
The target of experiment [10] is T3, 5-hydroxytryptamine receptor 1A. Briefly: Agonist activity at 5-HT1A receptor expressed in CHO cells assessed as stimulation of [35S]GTPgammaS binding after 30 mins. Type of experiment: functional, cell-based. For orientation: GTPγS resists hydrolysis and so accumulates on activated G proteins.
For experiment [11], the target named is T4, Alpha-1D adrenergic receptor (Homo sapiens, UniProt P25100).
T4 sequence (P25100 whole entry): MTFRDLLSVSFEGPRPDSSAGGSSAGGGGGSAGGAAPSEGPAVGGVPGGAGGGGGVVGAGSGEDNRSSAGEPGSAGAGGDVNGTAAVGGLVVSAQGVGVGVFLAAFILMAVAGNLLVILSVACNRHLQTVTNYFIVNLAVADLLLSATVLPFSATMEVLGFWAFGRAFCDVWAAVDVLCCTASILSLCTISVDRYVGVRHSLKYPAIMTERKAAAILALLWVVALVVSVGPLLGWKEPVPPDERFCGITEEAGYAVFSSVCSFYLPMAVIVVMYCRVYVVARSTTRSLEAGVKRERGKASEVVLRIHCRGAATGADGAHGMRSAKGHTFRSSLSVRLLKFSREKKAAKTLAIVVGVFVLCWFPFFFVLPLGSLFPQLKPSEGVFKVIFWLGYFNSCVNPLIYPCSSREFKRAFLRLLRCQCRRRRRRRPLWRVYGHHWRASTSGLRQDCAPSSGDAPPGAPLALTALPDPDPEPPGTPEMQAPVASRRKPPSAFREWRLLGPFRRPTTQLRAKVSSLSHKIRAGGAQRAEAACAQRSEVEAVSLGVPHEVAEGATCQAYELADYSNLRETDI
In words: Antagonist activity at adrenergic Alpha-1D receptor expressed in HEK293 cells co-transfected with Galpha16 assessed as inhibition of adrenaline-induced intracellular calcium after 3 to 5 mins by Fluo-4/AM assay. Type of experiment: functional, cell-based. In general terms: Calcium assays in cells follow changes in intracellular calcium, usually with a dye or a luminescent sensor.

Experiment [12] deals with Beta-2 adrenergic receptor (Homo sapiens, UniProt P07550). Briefly: Antagonist activity at adrenergic beta2 receptor expressed in HEK293 cells co-transfected with Galpha16 assessed as inhibition of adrenaline-induced intracellular calcium after 3 to 5 mins by Fluo-4/AM assay. Type of experiment: functional, cell-based.
Experiment [13] relates to Rattus norvegicus. In words: Antiparkinsonian activity in 6-hydroxydopamine lesioned Sprague-Dawley rat assessed as contralateral rotations at 0.5 to 1.5 mg/kg, ip measured every 5 mins for 6 hrs. Type of experiment: functional, organism-based.

What is called inhibition is how much of the control response was suppressed. The term Ki denotes a dissociation constant, usually derived from enzyme kinetics or from competition with a known ligand. In general, EC50 refers to the midpoint of the concentration-response curve. A word on the IC50: it is the concentration that inhibits the measured activity by half.

Each structure is given as a SMILES string. The source made the active and inactive calls. The rule behind the calls is not given here.

T2 sequence (P14416 whole entry): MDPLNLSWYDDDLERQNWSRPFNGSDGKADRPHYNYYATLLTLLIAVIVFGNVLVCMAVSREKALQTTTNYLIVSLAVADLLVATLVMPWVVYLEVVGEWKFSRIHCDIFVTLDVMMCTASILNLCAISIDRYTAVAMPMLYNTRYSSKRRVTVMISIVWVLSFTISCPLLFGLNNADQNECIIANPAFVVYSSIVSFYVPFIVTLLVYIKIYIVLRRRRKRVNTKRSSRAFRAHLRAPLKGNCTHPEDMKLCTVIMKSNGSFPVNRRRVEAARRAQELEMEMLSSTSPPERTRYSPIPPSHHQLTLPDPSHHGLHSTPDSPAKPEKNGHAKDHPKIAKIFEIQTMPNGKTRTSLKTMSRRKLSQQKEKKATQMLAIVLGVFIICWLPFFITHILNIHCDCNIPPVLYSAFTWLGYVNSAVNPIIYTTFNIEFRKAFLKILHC
5-hydroxytryptamine receptor 2A, sequence (P28223 whole entry): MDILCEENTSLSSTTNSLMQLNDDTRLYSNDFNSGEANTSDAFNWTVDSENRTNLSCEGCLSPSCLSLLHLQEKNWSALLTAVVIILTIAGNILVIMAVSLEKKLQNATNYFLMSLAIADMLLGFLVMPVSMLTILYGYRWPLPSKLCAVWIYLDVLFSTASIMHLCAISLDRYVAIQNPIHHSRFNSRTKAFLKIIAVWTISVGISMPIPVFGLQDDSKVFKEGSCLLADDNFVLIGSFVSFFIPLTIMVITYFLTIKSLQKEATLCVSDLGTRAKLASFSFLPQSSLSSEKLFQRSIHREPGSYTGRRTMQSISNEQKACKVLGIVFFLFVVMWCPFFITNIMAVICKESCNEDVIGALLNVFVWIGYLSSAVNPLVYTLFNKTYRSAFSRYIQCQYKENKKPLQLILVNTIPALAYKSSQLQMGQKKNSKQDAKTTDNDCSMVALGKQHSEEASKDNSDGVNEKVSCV
Beta-2 adrenergic receptor, sequence (P07550 whole entry): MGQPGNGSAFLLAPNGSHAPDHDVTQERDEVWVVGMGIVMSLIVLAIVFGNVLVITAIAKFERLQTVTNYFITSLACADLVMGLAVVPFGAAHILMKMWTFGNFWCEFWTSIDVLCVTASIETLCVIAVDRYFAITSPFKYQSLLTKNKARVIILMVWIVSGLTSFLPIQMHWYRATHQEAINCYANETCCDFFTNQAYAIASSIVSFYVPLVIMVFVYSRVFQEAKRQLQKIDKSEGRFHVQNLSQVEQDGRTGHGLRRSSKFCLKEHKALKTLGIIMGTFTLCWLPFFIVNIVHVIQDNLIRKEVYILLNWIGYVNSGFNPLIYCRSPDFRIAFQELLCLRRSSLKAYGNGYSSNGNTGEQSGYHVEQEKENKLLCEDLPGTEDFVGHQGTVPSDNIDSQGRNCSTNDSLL
D(1A) dopamine receptor, sequence (P21728 whole entry): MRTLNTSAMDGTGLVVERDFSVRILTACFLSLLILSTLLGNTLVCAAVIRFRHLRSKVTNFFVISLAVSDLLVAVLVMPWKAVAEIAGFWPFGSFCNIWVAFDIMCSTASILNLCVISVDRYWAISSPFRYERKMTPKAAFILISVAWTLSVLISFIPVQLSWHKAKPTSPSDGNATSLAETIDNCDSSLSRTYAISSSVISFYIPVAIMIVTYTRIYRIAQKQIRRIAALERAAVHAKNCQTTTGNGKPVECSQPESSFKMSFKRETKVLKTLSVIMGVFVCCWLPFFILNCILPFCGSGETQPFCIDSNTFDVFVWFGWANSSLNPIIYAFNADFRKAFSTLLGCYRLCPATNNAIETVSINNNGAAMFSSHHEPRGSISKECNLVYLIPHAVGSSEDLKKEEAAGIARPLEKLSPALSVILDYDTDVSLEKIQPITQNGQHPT

For the compound `CCCN1CCc2cccc3c2[C@H]1Cc1cccc(OC(=O)CCCCC2CCSS2)c1-3` (some centres undefined), the outcome with Rattus norvegicus [1], in the experiment with Rattus norvegicus [2], in the experiment with Rattus norvegicus [4] and with Rattus norvegicus [13] was Active. The result in the experiment on Rattus norvegicus [3] was inactive. In experiment [5], this compound returned an Activity of 63.8%. The inhibition at D(1A) dopamine receptor was 55.7%; in experiment [8], 48%. In addition, the values for the Ki (at D(2) dopamine receptor [6]; in experiment [7]) were 174 nM and 66 nM, respectively. The results for the EC50 (at D(2) dopamine receptor [9]; in experiment [10]) were 320 nM and 190 nM, respectively. In addition, the IC50 in [11] and in experiment [12] was greater than 10000 nM in each case.

The values above are taken from ChEMBL document CHEMBL1806354 (J Med Chem, 2011).
